Data as given in patent US7731985B2, “4-aminopyrimidines and their use for the antimicrobial treatment of surfaces” (Ciba Specialty Chemicals Corporation, priority 2002, dated 2010).

How the values were obtained:
Experiment in all cases: MIC in microtitre plates (Example 10)
Assay type in all cases: cell-based
Parameters in all cases: unit not given here
Settings in all cases: microtitre plate, 48 hours at 37° C., ≦20% growth
[1] = tested on: Escherichia coli NCTC 8196 (=EC)
How it was run: (§1)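 DMSO-dissolved compounds tested in 1:2 serial dilution against overnight CASO broth cultures, inoculum adjusted to 1-5×10^6 CFU/ml then diluted 1:100 in CASO. Incubated 48 hours at 37° C; turbidity read at 620 nm. MIC = lowest concentration giving ≦20% growth versus control; duplicates.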

[2] = tested on: Staphylococcus aureus ATCC 9144 (=SA)
How it was run: as §1

[3] = tested on: Pseudomonas aeruginosa CIP A-22 (=PA)
How it was run: as §1

[4] = tested on: Candida albicans ATCC 10231 (=CA)
How it was run: as §1

| SMILES | MIC EC [1] | MIC SA [2] | MIC PA [3] | MIC CA [4] |
| --- | --- | --- | --- | --- |
| CCCCCCCCCCNc1cc(C)nc(C(C)C)n1 [compound 105] | 15 | 7.5 | >120 | 7.5 |
| CCCCCCCCCCNc1cc(C)nc(-c2csc(C)n2)n1 [compound 106] | 15 | <3.75 | >120 | 15 |
| CCCCCCCCCCNc1cc(C)nc(-c2ccc(C)c(F)c2)n1 [compound 107] | 15 | 7.5 | >120 | 15 |
| CCCCCCNc1cc(C)nc(-c2ccc(-c3ccccc3)cc2)n1 [compound 108] | >120 | 30 | >120 | >120 |
| CCCCCCNc1cc(C)nc(-c2ccc(C(C)(C)C)cc2)n1 [compound 109] | 60 | 15 | >120 | 30 |
| CCCCCCNc1cc(C)nc(-c2cccs2)n1 [compound 110] | >120 | 60 | >120 | 120 |
| CCCCCCNc1cc(C)nc(-c2ccccc2)n1 [compound 111] | 120 | 7.5 | >120 | 60 |
| CCCCCCNc1cc(C)nc(-c2ccncc2)n1 [compound 112] | 120 | 15 | >120 | 30 |
| CCCCCCNc1cc(C)nc(C)n1 [compound 113] | 120 | 7.5 | >120 | 30 |
| CCCCCCNc1cc(C)nc(-c2cccc(N)c2)n1 [compound 114] | >120 | 15 | >120 | 30 |
| CCCCCCNc1cc(C)nc(-c2ccc(C)cc2)n1 [compound 115] | >120 | 7.5 | >120 | 120 |
| CCCCCCNc1cc(C)nc(C2CC2)n1 [compound 116] | 60 | 7.5 | >120 | 15 |
| CCCCCCNc1cc(C)nc(C(C)C)n1 [compound 117] | 120 | 15 | >120 | 30 |
| CCCCCCNc1cc(C)nc(-c2csc(C)n2)n1 [compound 118] | 60 | 7.5 | >120 | 15 |
| CCCCCCNc1cc(C)nc(-c2ccc(C)c(F)c2)n1 [compound 119] | >120 | 7.5 | >120 | 120 |
| CCCCCCNc1cc(C)nc(-c2ccc(N)cc2)n1 [compound 120] | 120 | 30 | >120 | 30 |
| CCCCN(CCCC)c1cc(C)nc(-c2ccncc2)n1 [compound 121] | >120 | 30 | >120 | >120 |
| CCCCN(CCCC)c1cc(C)nc(-c2csc(C)n2)n1 [compound 122] | >120 | 30 | >120 | 120 |
| CCCCN(C)c1cc(C)nc(-c2ccc(C(C)(C)C)cc2)n1 [compound 123] | >120 | 120 | >120 | >120 |
| CCCCN(C)c1cc(C)nc(-c2cccs2)n1 [compound 124] | 120 | 60 | >120 | 60 |
| CCCCN(C)c1cc(C)nc(-c2ccncc2)n1 [compound 125] | >120 | 120 | >120 | 120 |

| SMILES | MIC EC [1] | MIC SA [2] | MIC PA [3] | MIC CA [4] |
| --- | --- | --- | --- | --- |
| CCCCN(C)c1cc(C)nc(C)n1 [compound 126] | >120 | 120 | >120 | 120 |
| CCCCN(C)c1cc(C)nc(C2CC2)n1 [compound 127] | >120 | 60 | >120 | 60 |
| CCCCN(C)c1cc(C)nc(C(C)C)n1 [compound 128] | >120 | 120 | >120 | 120 |
| CCCCN(C)c1cc(C)nc(-c2csc(C)n2)n1 [compound 129] | >120 | 120 | >120 | 120 |
| CCCCN(C)c1cc(C)nc(-c2ccc(C)c(F)c2)n1 [compound 130] | >120 | 120 | >120 | >120 |
| CCCCC(CC)CNc1cc(C)nc(-c2ccc(C(C)(C)C)cc2)n1 (centres unmarked) [compound 131] | >120 | 120 | >120 | >120 |
| CCCCC(CC)CNc1cc(C)nc(-c2cccs2)n1 (centres unmarked) [compound 132] | >120 | 60 | >120 | >120 |
| CCCCC(CC)CNc1cc(C)nc(-c2ccccc2)n1 (centres unmarked) [compound 133] | >120 | 15 | >120 | >120 |
| CCCCC(CC)CNc1cc(C)nc(-c2ccncc2)n1 (centres unmarked) [compound 134] | >120 | 7.5 | >120 | 120 |
| CCCCC(CC)CNc1cc(C)nc(C)n1 (centres unmarked) [compound 135] | 120 | 60 | >120 | 30 |
| CCCCC(CC)CNc1cc(C)nc(-c2ccc(C)cc2)n1 (centres unmarked) [compound 136] | >120 | 7.5 | >120 | 60 |
| CCCCC(CC)CNc1cc(C)nc(C2CC2)n1 (centres unmarked) [compound 137] | 30 | 15 | >120 | 15 |
| CCCCC(CC)CNc1cc(C)nc(C(C)C)n1 (centres unmarked) [compound 138] | 60 | 30 | >120 | 30 |
| CCCCC(CC)CNc1cc(C)nc(-c2csc(C)n2)n1 (centres unmarked) [compound 139] | 60 | 7.5 | >120 | 30 |
| CCCCC(CC)CNc1cc(C)nc(-c2ccc(C)c(F)c2)n1 (centres unmarked) [compound 140] | >120 | 15 | >120 | 120 |
| Cc1cc(NC(C)CC(C)C)nc(-c2ccccc2)n1 (centres unmarked) [compound 141] | >120 | 120 | >120 | >120 |
| Cc1cc(NC(C)CC(C)C)nc(-c2ccncc2)n1 (centres unmarked) [compound 142] | >120 | 30 | >120 | 120 |
| Cc1cc(NC(C)CC(C)C)nc(C)n1 (centres unmarked) [compound 143] | >120 | >120 | >120 | 120 |
| Cc1ccc(-c2nc(C)cc(NC(C)CC(C)C)n2)cc1 (centres unmarked) [compound 144] | >120 | 60 | >120 | 120 |
| Cc1cc(NC(C)CC(C)C)nc(C2CC2)n1 (centres unmarked) [compound 145] | >120 | >120 | >120 | 120 |
